# Molecular target: hNav 1.7 (Homo sapiens (Human), UniProt Q15858)
# Test: Electrophysiological evaluation, automated patch clamp (IonWorks Quattro, Population Patch Clamp mode)
# Format: cell-based
# Details: HEK293A cells stably expressing hNav 1.7/β1/β2; response to second depolarization pulse, pre-pulse potential set to V1/2; read-out: hNav1.7 IC50
# hNav 1.7, sequence (Q15858 whole entry): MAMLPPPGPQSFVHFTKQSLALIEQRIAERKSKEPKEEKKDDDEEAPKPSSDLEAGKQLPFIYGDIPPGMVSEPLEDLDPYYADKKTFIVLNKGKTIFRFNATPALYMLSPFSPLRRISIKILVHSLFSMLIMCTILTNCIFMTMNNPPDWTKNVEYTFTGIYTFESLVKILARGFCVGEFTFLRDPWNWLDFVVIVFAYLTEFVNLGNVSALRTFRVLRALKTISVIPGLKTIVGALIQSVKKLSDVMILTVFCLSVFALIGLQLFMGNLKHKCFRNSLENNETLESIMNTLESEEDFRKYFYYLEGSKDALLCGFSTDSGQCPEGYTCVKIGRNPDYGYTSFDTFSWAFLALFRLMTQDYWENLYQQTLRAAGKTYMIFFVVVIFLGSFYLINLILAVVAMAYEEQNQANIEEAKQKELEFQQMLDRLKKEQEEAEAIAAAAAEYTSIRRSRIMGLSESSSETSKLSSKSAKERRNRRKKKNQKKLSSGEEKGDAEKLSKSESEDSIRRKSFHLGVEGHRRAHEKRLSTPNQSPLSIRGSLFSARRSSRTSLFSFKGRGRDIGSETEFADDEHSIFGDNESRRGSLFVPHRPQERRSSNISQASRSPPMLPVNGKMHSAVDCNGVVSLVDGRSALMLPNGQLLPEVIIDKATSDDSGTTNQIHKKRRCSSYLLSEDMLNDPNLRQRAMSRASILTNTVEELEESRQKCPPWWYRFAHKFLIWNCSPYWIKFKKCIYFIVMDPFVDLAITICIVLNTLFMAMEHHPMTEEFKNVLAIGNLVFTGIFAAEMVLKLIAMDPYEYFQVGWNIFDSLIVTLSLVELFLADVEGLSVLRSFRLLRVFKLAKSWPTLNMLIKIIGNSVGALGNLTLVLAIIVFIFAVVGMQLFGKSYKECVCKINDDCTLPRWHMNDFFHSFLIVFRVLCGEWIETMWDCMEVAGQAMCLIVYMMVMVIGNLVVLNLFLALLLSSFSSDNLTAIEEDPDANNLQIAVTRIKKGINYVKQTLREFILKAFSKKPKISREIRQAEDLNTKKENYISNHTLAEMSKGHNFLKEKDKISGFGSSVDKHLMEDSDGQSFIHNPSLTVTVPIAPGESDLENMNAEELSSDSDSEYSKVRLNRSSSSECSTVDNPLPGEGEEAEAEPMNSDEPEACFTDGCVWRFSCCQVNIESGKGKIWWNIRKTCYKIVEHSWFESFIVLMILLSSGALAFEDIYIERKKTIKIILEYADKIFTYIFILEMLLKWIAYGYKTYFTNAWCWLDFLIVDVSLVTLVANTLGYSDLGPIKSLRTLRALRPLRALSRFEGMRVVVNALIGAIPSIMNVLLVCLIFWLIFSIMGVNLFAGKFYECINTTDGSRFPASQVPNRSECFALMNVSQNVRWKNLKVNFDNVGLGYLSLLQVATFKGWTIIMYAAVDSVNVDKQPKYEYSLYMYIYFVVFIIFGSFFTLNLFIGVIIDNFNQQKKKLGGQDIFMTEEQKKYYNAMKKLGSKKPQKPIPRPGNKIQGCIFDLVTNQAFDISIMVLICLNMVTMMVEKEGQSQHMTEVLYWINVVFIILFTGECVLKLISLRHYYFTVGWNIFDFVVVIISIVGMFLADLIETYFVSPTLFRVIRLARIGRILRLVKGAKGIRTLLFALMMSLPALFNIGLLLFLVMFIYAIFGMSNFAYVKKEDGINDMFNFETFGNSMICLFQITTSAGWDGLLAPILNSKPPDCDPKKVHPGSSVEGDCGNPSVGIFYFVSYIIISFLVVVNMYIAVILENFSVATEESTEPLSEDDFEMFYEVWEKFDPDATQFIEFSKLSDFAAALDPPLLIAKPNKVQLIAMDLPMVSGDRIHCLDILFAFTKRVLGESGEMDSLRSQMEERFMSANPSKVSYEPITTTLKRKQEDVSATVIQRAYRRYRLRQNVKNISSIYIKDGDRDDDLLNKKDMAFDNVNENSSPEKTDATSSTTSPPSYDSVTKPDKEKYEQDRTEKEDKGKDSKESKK
# hNav 1.7, sequence (Q07699 19-218 partner): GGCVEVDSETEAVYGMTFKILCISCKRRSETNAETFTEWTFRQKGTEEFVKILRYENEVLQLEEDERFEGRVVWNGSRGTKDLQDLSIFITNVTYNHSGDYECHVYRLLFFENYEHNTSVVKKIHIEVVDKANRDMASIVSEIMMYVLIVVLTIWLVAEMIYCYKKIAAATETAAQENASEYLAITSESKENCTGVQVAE
# hNav 1.7, sequence (O60939 30-215 partner): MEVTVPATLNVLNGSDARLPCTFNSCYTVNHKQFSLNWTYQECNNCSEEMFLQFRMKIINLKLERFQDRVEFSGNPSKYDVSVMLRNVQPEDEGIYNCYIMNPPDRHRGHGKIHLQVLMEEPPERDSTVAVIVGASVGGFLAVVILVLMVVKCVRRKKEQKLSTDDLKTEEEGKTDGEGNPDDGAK
row,SMILES,IC50 [nM]
1,"Cn1nccc1[C@H]1CCCCC[C@@H]1Oc1cc(F)c(S(=O)(=O)Nc2ccncn2)cc1F (relative stereo) [Compound 9, 2,5-Difluoro-4-{[(1S*,2R*)-2-(1-methyl-1H-pyrazol-5-yl)cycloheptyl]oxy}-N-(pyrimidin-4-yl)benzenesulfonamide]",91
2,"Cn1nccc1[C@H]1CCCCC[C@@H]1Oc1cc(F)c(S(=O)(=O)Nc2ccncn2)cc1Cl (relative stereo) [Compound 19, 5-Chloro-2-fluoro-4-{[(1S*,2R*)-2-(1-methyl-1H-pyrazol-5-yl)cycloheptyl]oxy}-N-(pyrimidin-4-yl)benzenesulfonamide]",37

# From US9597330B2, “Drugs for treating respiratory diseases” (DAIICHI SANKYO COMPANY, LIMITED, priority 2013, dated 2017)
